Experimental data: the Deep4Chem optical property database
One block for each molecule: values may come before it.

Assay: solvent given as SMILES

SMILES: O=S(=O)(c1ccc(-c2ccc(-c3nc4c5ccccc5c5ccccc5c4n3-c3ccccc3)cc2)cc1)c1ccc(-c2ccc(-c3nc4c5ccccc5c5ccccc5c4n3-c3ccccc3)cc2)cc1
- absorption maximum (in C1CCOC1): 368 nm
- absorption maximum (in CC#N): 368 nm
- absorption maximum (in CC(C)=O): 368 nm
- absorption maximum (in CC(C)OC(C)C): 368 nm
- absorption maximum (in CCCCCC): 368 nm
- absorption maximum (in CCCCOCCCC): 368 nm
- absorption maximum (in CCN(CC)CC): 368 nm
- absorption maximum (in CCOC(C)=O): 368 nm
- absorption maximum (in CCOCC): 368 nm
- absorption maximum (in CN(C)C=O): 368 nm
- absorption maximum (in ClC(Cl)Cl): 368 nm
- absorption maximum (in ClCCl): 368 nm

SMILES: c1ccc2c(c1)ccc1ccccc12
- absorption maximum (in Cc1ccccc1): 295 nm

- absorption maximum (in CCO): 430 nm
- absorption maximum (in ClCCl): 436 nm
SMILES: CCN(CC)c1ccc2cc(C#N)/c(=N\C(=O)c3ccc(C)cc3)oc2c1

- absorption maximum (in ClCCl): 485 nm
SMILES: CCCCN1C(=O)C2=C(c3ccc(-c4ccccc4)cc3)NC(=O)C2=C1c1ccc(-c2ccccc2)cc1

- absorption maximum (in C1COCCO1): 331 nm
- absorption maximum (in CC#N): 330 nm
- absorption maximum (in CO): 333 nm
- absorption maximum (in ClCCl): 326 nm
- absorption maximum (in O): 331 nm
SMILES: N#Cc1nc2cnc(N)nc2n1Cc1ccccc1

SMILES: CCn1c2ccccc2c2cc(C#Cc3cc(C#Cc4ccc5c(c4)c4ccccc4n5CC)nc(SC)n3)ccc21
- absorption maximum (in C1CCOC1): 396 nm
- absorption maximum (in CCOC(C)=O): 392 nm
- absorption maximum (in CN(C)C=O): 399 nm
- absorption maximum (in Cc1ccccc1): 396 nm
- absorption maximum (in ClCCl): 396 nm

SMILES: CCn1c2ccccc2c2cc(-c3cc(-c4ccc5c(c4)c4ccccc4n5CC)nc(SC)n3)ccc21
- absorption maximum (in C1CCOC1): 371 nm
- absorption maximum (in CCOC(C)=O): 369 nm
- absorption maximum (in CN(C)C=O): 374 nm
- absorption maximum (in Cc1ccccc1): 370 nm
- absorption maximum (in ClCCl): 370 nm

SMILES: CCCCCCCCN1c2ccccc2Sc2cc(/C=C/c3ccc(N(c4ccc(/C=C/c5ccc6c(c5)Sc5ccccc5N6CCCCCCCC)cc4)c4ccc(/C=C/c5ccc(/C=C/c6ccc(N(c7ccc(/C=C/c8ccc(N(c9ccccc9)c9ccccc9)cc8)cc7)c7ccc(/C=C/c8ccc(N(c9ccccc9)c9ccccc9)cc8)cc7)cc6)c6nsnc56)cc4)cc3)ccc21
- absorption maximum (in C1CCOC1): 534 nm
- absorption maximum (in CCOC(C)=O): 524 nm
- absorption maximum (in CN(C)C=O): 528 nm
- absorption maximum (in Cc1ccccc1): 533 nm
- absorption maximum (in ClC(Cl)Cl): 534 nm
- absorption maximum (in ClCCl): 533 nm

- absorption maximum (in ClC(Cl)Cl): 526 nm
SMILES: CCCCCCCCCCCC#CC#CCCCCCCCCCN1C(=O)c2ccc3c4ccc5c6c(ccc(c7ccc(c2c37)C1=O)c64)C(=O)N(CCCCCCCCCC#CC#CCCCCCCCCCCCC)C5=O

SMILES: CC[N+]1(CC)CN2C(=N1)C(C(=O)O)=Cc1cc(F)ccc12
- absorption maximum (in O): 375 nm

- absorption maximum (in CCO): 312 nm
SMILES: CCOC(=O)c1cc(C(=O)OCC)c2c(C)ccc(OC(=O)OC(C)(C)C)c2n1

- absorption maximum (in c1cc(-c2cccc(-n3c4ccccc4c4ccccc43)c2)cc(-n2c3ccccc3c3ccccc32)c1): 363.44 nm
SMILES: Cc1cc(-c2nc(-c3ccccc3)nc(-c3ccccc3)n2)c(C)cc1-c1ccc2c(c1)C1(c3ccccc3-c3ccccc31)c1ccccc1N2c1ccccc1

- absorption maximum (in CC#N): 390 nm
- absorption maximum (in ClCCl): 387 nm
SMILES: Cc1cc(O)c(C(=O)/C=C/c2ccc(O)c(O)c2)c(=O)o1

- absorption maximum (in ClC(Cl)Cl): 444 nm
SMILES: Cc1ccc(-n2c3ccccc3c3cc(-c4ccc5[n+](c4)[B-](F)(F)n4c-5nc5c6ccccc6c6ccccc6c54)ccc32)cc1

- absorption maximum (in ClCCl): 376 nm
SMILES: COc1ccc(/C=C/c2cc(/C=C/c3ccc(OC)cc3)nc(/C=C/c3ccc(N(c4ccccc4)c4ccccc4)cc3)n2)cc1

SMILES: O=C1/C(=C\c2ccc(N(c3ccccc3)c3ccccc3)cc2)S(=O)(=O)c2ccccc21
- absorption maximum (in C1CCOC1): 473 nm
- absorption maximum (in C1COCCO1): 475 nm
- absorption maximum (in CC#N): 475 nm
- absorption maximum (in CC(C)=O): 472 nm
- absorption maximum (in CCOC(C)=O): 471 nm
- absorption maximum (in CN(C)C=O): 478 nm
- absorption maximum (in CO): 477 nm
- absorption maximum (in CS(C)=O): 482 nm
- absorption maximum (in Cc1ccccc1): 485 nm
- absorption maximum (in ClC(Cl)Cl): 491 nm
- absorption maximum (in ClCCl): 485 nm

- absorption maximum (in CCCCCC): 450 nm
- absorption maximum (in CO): 466 nm
SMILES: O=C1C=C(Nc2ccccc2)C(=O)c2ccccc21

- absorption maximum (in C1CCOC1): 429 nm
SMILES: CC(C)(C)c1ccc(C2=C(c3ccc(-n4c5ccc(C(C)(C)C)cc5c5cc(C(C)(C)C)ccc54)cc3)S(=O)(=O)c3c2sc(-c2ccc(-n4c5ccc(C(C)(C)C)cc5c5cc(C(C)(C)C)ccc54)cc2)c3-c2ccc(C(C)(C)C)cc2)cc1

- absorption maximum (in C1COCCO1): 402 nm
- absorption maximum (in CC#N): 401 nm
- absorption maximum (in CCCCOCCCC): 402 nm
- absorption maximum (in CCOC(C)=O): 402 nm
SMILES: c1ccc(Nc2nc(Nc3ccccc3)nc(Nc3ccc4cc5ccccc5cc4c3)n2)cc1

SMILES: CC1=CC(C)=[N+]2C1=C(c1ccccc1)c1c(C)c(-c3cccs3)c(C)n1[B-]2(F)F
- absorption maximum (in CO): 507 nm
- absorption maximum (in Cc1ccccc1): 513 nm
- absorption maximum (in ClCCl): 511 nm

SMILES: Cc1cc(-c2nc(-c3ccccc3)nc(-c3ccccc3)n2)ccc1N1c2ccccc2[Si](c2ccccc2)(c2ccccc2)c2ccccc21
- absorption maximum (in Cc1ccccc1): 379.03 nm

SMILES: CC1(C)c2ccccc2N(c2ccc(-c3nc4c(C#N)ccc(C#N)c4nc3-c3ccc(N4c5ccccc5C(C)(C)c5ccccc54)cc3)cc2)c2ccccc21
- absorption maximum (in Cc1ccccc1): 479 nm

SMILES: c1ccc2c(c1)Cc1ccccc1N2c1c2ccccc2cc2ccccc12
- absorption maximum (in Cc1ccccc1): 416 nm

- absorption maximum (in C1CCOC1): 351 nm
SMILES: CCCCOc1cc2ccccc2c2c1oc1cc3ccccc3cc12

SMILES: CC(C)(C)c1ccc2c(c1)c1cc(C(C)(C)C)ccc1n2-c1ccc(-c2nc(-c3ccc(-n4c5ccc(C(C)(C)C)cc5c5cc(C(C)(C)C)ccc54)cc3)nc(-c3ccc(P(=O)(c4ccccc4)c4ccccc4)cc3)n2)cc1
- absorption maximum (in C1CCOC1): 386.93 nm
- absorption maximum (in CC#N): 380.02 nm
- absorption maximum (in CC(C)=O): 380.02 nm
- absorption maximum (in CN(C)C=O): 384.45 nm
- absorption maximum (in Cc1ccccc1): 393.2 nm
- absorption maximum (in ClC(Cl)Cl): 430.07 nm
- absorption maximum (in ClCCl): 382.72 nm

SMILES: CCN(CC)c1ccc(-c2nc3c(c4c2-c2ccccc2CC4)-c2ccccc2CC3)cc1
- absorption maximum (in C1CCOC1): 357 nm
- absorption maximum (in CC#N): 360 nm
- absorption maximum (in CCCCCC): 355 nm
- absorption maximum (in CCOC(C)=O): 346 nm
- absorption maximum (in CO): 352 nm
- absorption maximum (in CS(C)=O): 361 nm
- absorption maximum (in Cc1ccccc1): 359 nm
- absorption maximum (in ClCCl): 357 nm

SMILES: CCN1c2ccc(/C=N/Nc3ccccn3)cc2Sc2cc(-c3cccc4ccccc34)ccc21
- absorption maximum (in C1CCOC1): 378 nm
- absorption maximum (in CS(C)=O): 383 nm
- absorption maximum (in Cc1ccccc1): 378 nm
- absorption maximum (in ClCCl): 379 nm

- absorption maximum (in ClCCl): 393 nm
SMILES: COc1ccc(C#Cc2nc3ccccc3nc2-c2ccn(-c3ccccc3)c2)cc1

- absorption maximum (in ClCCl): 351 nm
SMILES: CCOC(=O)c1c(-c2cc3cc(OC)ccc3oc2=O)nn(-c2cccc(C)c2)c1C(=O)OCC

- absorption maximum (in ClCCl): 374 nm
SMILES: CCn1c2ccccc2c2cc(/C=C(\C#N)c3ccccc3)ccc21

- absorption maximum (in ClCCl): 353 nm
SMILES: C(S/C=C/c1ccc(-c2ccc(/C=C/SC=C3CCCCCC3)cc2)cc1)=C1CCCCCC1

- absorption maximum (in ClCCl): 626 nm
SMILES: C1=C2C3=C(C4=[N+]2[B-]2(Oc5ccccc54)Oc4ccccc4-c4c5c(c1n42)C1CCC5CC1)C1CCC3CC1 (configuration not stated)

- absorption maximum (in O): 210 nm
SMILES: CC(=O)[O-]

- absorption maximum (in ClC(Cl)Cl): 582 nm
SMILES: CCCCN1C(=O)c2cc(Oc3ccc(C(C)(C)C)cc3)c3c4c(Oc5ccc(C(C)(C)C)cc5)cc5c6c(cc(Oc7ccc(C(C)(C)C)cc7)c(c7c(Oc8ccc(C(C)(C)C)cc8)cc(c2c37)C1=O)c64)C(=O)N(CCCC)C5=O

- absorption maximum (in C1CCOC1): 387.5 nm
- absorption maximum (in CC#N): 388 nm
- absorption maximum (in CCO): 391 nm
- absorption maximum (in CN(C)C=O): 391.5 nm
- absorption maximum (in CO): 391.5 nm
- absorption maximum (in CS(C)=O): 393.5 nm
SMILES: CCOC(=O)c1sc(SC)c2c(=O)n(C)nnc12

- absorption maximum (in C1CCOC1): 341 nm
SMILES: CC(C)(C)c1ccc(-c2c(-c3ccc(-n4c5ccccc5c5ccccc54)cc3)cc(-c3ccc(-n4c5ccccc5c5ccccc54)cc3)c(-c3ccc(C(C)(C)C)cc3)c2-c2ccc(C(C)(C)C)cc2)cc1

- absorption maximum (in ClCCl): 450 nm
SMILES: CC(C)(C)c1ccc2c(c1)c1cc(C(C)(C)C)ccc1n2-c1ccc(N(c2ccc(-c3ccc(-c4ccc(-c5ccc(-c6ccc(-c7ccc(N(c8ccc(-n9c%10ccc(C(C)(C)C)cc%10c%10cc(C(C)(C)C)ccc%109)cc8)c8ccc(-n9c%10ccc(C(C)(C)C)cc%10c%10cc(C(C)(C)C)ccc%109)cc8)cc7)s6)s5)s4)s3)cc2)c2ccc(-n3c4ccc(C(C)(C)C)cc4c4cc(C(C)(C)C)ccc43)cc2)cc1

- absorption maximum (in CO): 522 nm
- absorption maximum (in ClC(Cl)Cl): 561 nm
SMILES: Cc1nc2c(ccc3c2sc(/C=C/c2ccc(N(c4ccccc4)c4ccccc4)cc2)[n+]3C)s1

- absorption maximum (in ClCCl): 355 nm
SMILES: O=c1c2ccccc2nc2ccc(-c3ccc(N(c4ccccc4)c4ccccc4)cc3)cn12

- absorption maximum (in ClC(Cl)Cl): 471 nm
SMILES: COc1ccc2c(c1)c(C#N)cc1c(OC)c(OC)c3cc(C#N)c4cc(OC)ccc4c3c12

- absorption maximum (in C1CCOC1): 396 nm
- absorption maximum (in CN(C)C=O): 390 nm
SMILES: O=C(O)c1ccc(C(=O)O)c2cc3ccccc3cc12

- absorption maximum (in ClCCl): 341 nm
SMILES: O=S1(=O)c2ccc(-c3ccc(-n4c5ccccc5c5ccccc54)cc3)cc2C2(c3ccccc3-c3ccccc32)c2cc(-c3ccc(-n4c5ccccc5c5ccccc54)cc3)ccc21

- absorption maximum (in ClC(Cl)Cl): 703 nm
SMILES: Cc1ccc(C2=C3C=CC4=[N+]3[B-](F)(F)n3c2ccc3-c2ccc([nH]2)/C(c2ccc(C)cc2)=c2/cc/c(o2)=C(\c2ccc(C)cc2)c2ccc4[nH]2)cc1

- absorption maximum (in ClC(Cl)Cl): 416 nm
SMILES: C(#Cc1ccccc1)C(C#Cc1ccccc1)=Cc1ccc(C=C(C#Cc2ccccc2)C#Cc2ccccc2)cc1

- absorption maximum (in CC#N): 394 nm
- absorption maximum (in CO): 399 nm
- absorption maximum (in ClCCl): 393 nm
SMILES: Cc1ccc(O)c(-c2[nH]c(=O)n3c2-c2ccccc2C3=O)c1

- absorption maximum (in C1CCCCC1): 302 nm
SMILES: C=Cc1ccc(OC)cc1

- absorption maximum (in ClC(Cl)Cl): 706 nm
- absorption maximum (in ClCCl): 706 nm
SMILES: COc1ccc2cc(C3=[N+]4C(=Nc5c(-c6ccccc6)cc(-c6ccc7cc(OC)ccc7c6)n5[B-]4(F)F)C(c4ccccc4)=C3)ccc2c1

SMILES: O=[N+]([O-])c1ccccc1O
- absorption maximum (in CO): 338 nm
- absorption maximum (in O): 411 nm

- absorption maximum (in ClC(Cl)Cl): 525 nm
SMILES: CC(C)[Si](C#Cc1c2c(=O)c3ccccc3c2c(C#C[Si](C(C)C)(C(C)C)C(C)C)c2c(=O)c3ccccc3c12)(C(C)C)C(C)C
